In patent publication US20130252930A1 (BIOMARIN PHARMACEUTICAL INC., priority 2010, published 2013):

Target: T1, CYP17 (human testicular microsome) (Homo sapiens, UniProt P05093)
T1 construct: using microsomal fraction from human testis (Celsis Cat #S00110) as the enzyme source; tissue Celsis S00110; host or cells: human testis microsomal fraction
T1 sequence (P05093 1-508): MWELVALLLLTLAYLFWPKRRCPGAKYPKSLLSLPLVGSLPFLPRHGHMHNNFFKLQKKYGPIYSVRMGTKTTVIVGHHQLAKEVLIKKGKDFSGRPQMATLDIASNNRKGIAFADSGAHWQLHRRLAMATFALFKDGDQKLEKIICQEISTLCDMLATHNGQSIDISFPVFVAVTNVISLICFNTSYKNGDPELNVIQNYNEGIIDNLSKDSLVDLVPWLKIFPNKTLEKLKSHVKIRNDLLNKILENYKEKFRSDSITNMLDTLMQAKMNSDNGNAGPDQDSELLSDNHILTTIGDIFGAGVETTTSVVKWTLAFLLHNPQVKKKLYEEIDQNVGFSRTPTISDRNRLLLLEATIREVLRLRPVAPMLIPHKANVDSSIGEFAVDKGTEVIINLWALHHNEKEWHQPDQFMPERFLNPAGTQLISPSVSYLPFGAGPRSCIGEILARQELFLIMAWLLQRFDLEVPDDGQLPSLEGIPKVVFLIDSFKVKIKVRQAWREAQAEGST
Experiment: CYP17 enzymatic assay (% inhibition at 1 nM) (Biological Example 12)
Type: biochemical
Details: compound at 1 nM, read-out: Biological Example No. 12: CYP17 enzymatic assay % inhibition at 1 nM

Row | SMILES | inhibition at 0.001 µM [%]
1 | CC(CO)(CO)C(=O)O[C@H]1CC[C@@]2(C)C(=CC[C@H]3C4=CC=C(c5cccnc5)[C@@]4(C)CC[C@@H]32)C1 [Compound 206, (3S,10R,13S)-10,13-dimethyl-17-(pyridin-3-yl)-2,3,4,7,8,9,10,11,12,13-decahydro-1H-cyclopenta[a]phenanthren-3-yl 3-hydroxy-2-(hydroxymethyl)-2-methylpropanoate] | < 10
2 | CC1C(O)CC[C@@]2(C)C1CCC1C2CC[C@]2(C)C(c3cncc(F)c3)=CCC12 (stereo partly drawn) [Compound 305, (10R,13S)-17-(5-fluoropyridin-3-yl)-4,10,13-trimethyl-2,3,4,5,6,7,8,9,10,11,12,13,14,15-tetradecahydro-1H-cyclopenta[a]phenanthren-3-ol] | < 10
3 | CC1C[C@@]2(C)C(CC[C@@H]3[C@@H]2CC[C@]2(C)C(c4cccnc4)=CC[C@@H]32)C(C)C1O (stereo partly drawn) [Compound 416, (10R,13S)-2,4,10,13-tetramethyl-17-(pyridin-3-yl)-2,3,4,5,6,7,8,9,10,11,12,13,14,15-tetradecahydro-1H-cyclopenta[a]phenanthren-3-ol] | 10 to 50
4 | CN1C(=O)CC[C@@]2(C)C1=CC[C@@H]1[C@@H]2CC[C@]2(C)C(c3cnccc3F)=CC[C@@H]12 [Compound 430, (4aR,6aS)-7-(4-fluoropyridin-3-yl)-1,4a,6a-trimethyl-4,4a,4b,5,6,6a,9,9a,9b,10-decahydro-1H-indeno[5,4-f]quinolin-2(3H)-one] | 10 to 50

Same assay, conditions: compound at 1 nM, read-out: CYP17 enzymatic assay % inhibition at 1 nM (Biological Example No. 12)

Row | SMILES | inhibition at 0.001 µM [%]
5 | CCc1ccncc1C1=CC[C@H]2[C@@H]3CC[C@H]4CNC(=O)CC[C@]4(C)[C@H]3CC[C@]12C [Compound 470, (5aR,5bS,7aS,10aS,10bR,12aR)-8-(4-ethylpyridin-3-yl)-5a,7a-dimethyl-1,2,5,5a,5b,6,7,7a,10,10a,10b,11,12,12a-tetradecahydrocyclopenta[5,6]naphtho[2,1-c]azepin-3(4H)-one] | < 10
6 | CCc1cncc(C2=CC[C@H]3[C@@H]4CC[C@H]5C[C@@H](OC)CC[C@]5(C)[C@H]4CC[C@]23C)c1 [Compound 455, 3-ethyl-5-((3S,5S,8R,9S,10S,13S,14S)-3-methoxy-10,13-dimethyl-2,3,4,5,6,7,8,9,10,11,12,13,14,15-tetradecahydro-1H-cyclopenta[a]phenanthren-17-yl)pyridine] | 10 to 50
7 | CNC1C[C@H]2[C@@H]3CC=C(n4ccnc4)[C@@]3(C)CC[C@@H]2[C@@]2(C)CCC3CC312 (mixture of isomers) [Compound 248, (3aR,5aS)-6-(1H-imidazol-1-yl)-N,3a,5a-trimethyl-1,1a,2,3,3a,3b,4,5,5a,8,8a,8b,9,10-tetradecahydrocyclopenta[a]cyclopropa[2,3]cyclopenta[1,2-f]naphthalen-10-amine] | < 10
8 | C[C@@]1(O)CC[C@@]2(C)C(CCC3C4=CC=C(c5cccnc5)[C@@]4(C)CCC32)C1 (stereo partly drawn) [Compound 260, (3R,10S,13S)-3,10,13-trimethyl-17-(pyridin-3-yl)-2,3,4,5,6,7,8,9,10,11,12,13-dodecahydro-1H-cyclopenta[a]phenanthren-3-ol] | < 10
9 | C[C@]12CC[C@@](O)(C3CC3)CC1CC[C@@H]1[C@@H]2CC[C@]2(C)C(c3cccnc3)=CC[C@@H]12 (stereo partly drawn) [Compound 252, (3S,10S,13S)-3-cyclopropyl-10,13-dimethyl-17-(pyridin-3-yl)-2,3,4,5,6,7,8,9,10,11,12,13,14,15-tetradecahydro-1H-cyclopenta[a]phenanthren-3-ol] | 10 to 50
10 | C[C@]12CC[C@H]3[C@@H](CC(Nc4nccs4)C45CC4CC[C@]35C)[C@@H]1CC=C2c1cccnc1 (stereo partly drawn) [Compound 251, N-((3aR,5aS)-3a,5a-dimethyl-6-(pyridin-3-yl)-1,1a,2,3,3a,3b,4,5,5a,8,8a,8b,9,10-tetradecahydrocyclopenta[a]cyclopropa[2,3]cyclopenta[1,2-f]naphthalen-10-yl)thiazol-2-amine] | 10 to 50
11 | C[C@@]1(O)CC[C@@]2(C)C(CCC3C2CC[C@]2(C)C(c4cccnc4)=CCC32)C1 (stereo partly drawn) [Compound 253, (3R,10S,13S)-3,10,13-trimethyl-17-(pyridin-3-yl)-2,3,4,5,6,7,8,9,10,11,12,13,14,15-tetradecahydro-1H-cyclopenta[a]phenanthren-3-ol] | < 10
12 | C[C@]12CC[C@H](O)CC1CCC1C2CC[C@]2(C)C(c3ccc[n+]([O-])c3)CCC12 (stereo partly drawn) [Compound 472, 3-((3S,10S,13S)-3-hydroxy-10,13-dimethylhexadecahydro-1H-cyclopenta[a]phenanthren-17-yl)pyridine 1-oxide] | 10 to 50
13 | C[C@]12CCC3C(CC4OC45C[C@@H](O)CC[C@]35C)C1=CC=C2c1cccnc1 (stereo partly drawn) [Compound 439, (3S,9aS,11bR)-9a,11b-dimethyl-9-(pyridin-3-yl)-1,2,3,4,5a,6,6a,9a,10,11,11a,11b-dodecahydrocyclopenta[1,2]phenanthro[8a,9-b]oxiren-3-ol] | > 50
14 | COC1CC[C@@]2(C)C(=CCC3C2CC[C@]2(C)C(c4cncc(C)c4)=CCC32)C1 (stereo partly drawn) [Compound 454, 3-((10R,13S)-3-methoxy-10,13-dimethyl-2,3,4,7,8,9,10,11,12,13,14,15-dodecahydro-1H-cyclopenta[a]phenanthren-17-yl)-5-methylpyridine] | < 10
15 | CC(C)C(=O)O[C@H]1CC[C@@]2(C)C(=CCC3C4=CC=C(c5cccnc5)[C@@]4(C)CCC32)C1 (stereo partly drawn) [Compound 191, (3S,10R,13S)-10,13-dimethyl-17-(pyridin-3-yl)-2,3,4,7,8,9,10,11,12,13-decahydro-1H-cyclopenta[a]phenanthren-3-yl isobutyrate] | 10 to 50
16 | CO[C@H]1CC[C@@]2(C)[C@@H](CC[C@@H]3[C@@H]2CC[C@]2(C)C(c4cnccc4C)=CC[C@@H]32)C1 [Compound 458, 3-((3S,5S,8R,9S,10S,13S,14S)-3-methoxy-10,13-dimethyl-2,3,4,5,6,7,8,9,10,11,12,13,14,15-tetradecahydro-1H-cyclopenta[a]phenanthren-17-yl)-4-methylpyridine] | 10 to 50

Same assay, conditions: test compound at 1 nM, read-out: CYP17 enzymatic assay percent inhibition at 1 nM (Biological Example No. 12)

Row | SMILES | inhibition at 0.001 µM [%]
17 | C[C@]12CC(F)(F)CC1CCC1C2CC[C@]2(C)C(c3cccnc3)=CCC12 (stereo partly drawn) [Compound 407, 3-((8aS,10aS)-7,7-difluoro-8a,10a-dimethyl-3,3a,3b,4,5,5a,6,7,8,8a,8b,9,10,10a-tetradecahydrodicyclopenta[a,f]naphthalen-1-yl)pyridine] | 10 to 50
18 | CC(C)(C)C(=O)N[C@@H]1CC[C@@]2(C)C(CCC3C2CC[C@]2(C)C(c4cccnc4)=CCC32)C1 (stereo partly drawn) [Compound 218, N-((3R,10S,13S)-10,13-dimethyl-17-(pyridin-3-yl)-2,3,4,5,6,7,8,9,10,11,12,13,14,15-tetradecahydro-1H-cyclopenta[a]phenanthren-3-yl)pivalamide] | 10 to 50
19 | CC(=O)Nc1cncc(C2=CCC3C4CC=C5C[C@@H](O)CC[C@]5(C)C4CC[C@]23C)c1 (stereo partly drawn) [Compound 281, N-(5-((3S,10R,13S)-3-hydroxy-10,13-dimethyl-2,3,4,7,8,9,10,11,12,13,14,15-dodecahydro-1H-cyclopenta[a]phenanthren-17-yl)pyridin-3-yl)acetamide] | < 10
20 | CCc1ccncc1C1=CC=C2C3CCC4CC(=O)CC[C@]4(C)C3CC[C@]12C (stereo partly drawn) [Compound 488, (10S,13S)-17-(4-ethylpyridin-3-yl)-10,13-dimethyl-4,5,6,7,8,9,10,11,12,13-decahydro-1H-cyclopenta[a]phenanthren-3(2H)-one] | 10 to 50
